# Assay results reported in US20150038671A1, “Efficient Synthesis of CN2097 and RC7 and Their Analogs” (priority 2013, published 2015).
# Starred links: 1 amine or outer side, 2 acyl side, 3 side chain; linkers in the order of their positions; H or OH if unused. Positions of bridges follow the written chain, without caps; N, C: chain ends. Non-standard residues stand in square brackets, D forms with d. Residues, ends and D or L forms follow the SMILES beside them. Chains are numbered I, II in the order given. Dmt = Cc1cc(O)cc(C)c1C[C@H](N)C(=O)O; X1 = O=C(CCN[*:2])[*:1]
# Experiment: Plasma stability (T1/2) in the blood plasma, HPLC analysis
# Format: in vitro ADME
# Settings: time by which the compound was degraded by enzyme to the 50% of original amount
# Experimental: The stability of CN2097 and Szeto CN2097 derivatives in blood was determined as follows.
# The detection limit of CN2097 was measured by HPLC analysis. Various concentrations of CN2097 were prepared in PBS and injected in HPLC and monitored at 214 nm. The HPLC analysis of CN2097 using 50 microliter injection and detecting up to 500 micromolar. The lowest level of detection was at 2 micromolar, corresponding to 0.1 nmole or 237.68 ng (FIG. 13).
# The T1/2 is the time by which the compound was degraded by enzyme to the 50% of original amount.
row,half-life [min],Structure (SMILES)
1,~48.2,CC(C)[C@H](NC(=O)[C@@H]1CCC(=O)NCCC(=O)NCCCC[C@H](NC(=O)[C@H](CCCCN)NC(=O)[C@H](Cc2ccc(O)cc2)NC(=O)[C@H](CC(N)=O)NC(=O)[C@H](CCCCN)NC(=O)[C@@H](N)CSSC[C@H](N)C(=O)N[C@@H](CCCNC(=N)N)C(=O)N[C@@H](CCCNC(=N)N)C(=O)N[C@@H](CCCNC(=N)N)C(=O)N[C@@H](CCCNC(=N)N)C(=O)N[C@@H](CCCNC(=N)N)C(=O)N[C@@H](CCCNC(=N)N)C(=O)N[C@@H](CCCNC(=N)N)C(N)=O)C(=O)N[C@@H]([C@@H](C)O)C(=O)N1)C(=O)O [CN2097] (I: H-CKNYKKTEV-OH / II: H-CRRRRRRR-NH2; disulfide I:1-II:1; linker I:6-I:8 via X1)
2,~28,"CC(C)[C@H](NC(=O)[C@@H]1CCC(=O)NCCC(=O)NCCCC[C@H](NC(=O)[C@H](CCCCN)NC(=O)[C@H](Cc2ccc(O)cc2)NC(=O)[C@H](CC(N)=O)NC(=O)[C@H](CCCCN)NC(=O)[C@@H](N)CS)C(=O)N[C@@H]([C@@H](C)O)C(=O)N1)C(=O)O [CN, Cys-Lys-Asn-Tyr-Lys-[Lys-Thr-Glu(β Ala)]-Val (NH2-CKNYK-[KTE(β-A)]V—OH)] (H-CKNYKKTEV-OH; linker 6-8 via X1)"

row,Structure (SMILES),half-life [min]
1,Cc1cc(O)cc(C)c1C[C@H](N)C(=O)N[C@H](CCCNC(=N)N)C(=O)N[C@@H](Cc1ccccc1)C(=O)N[C@@H](CCCCN)C(=O)N[C@@H](CSSC[C@H](N)C(=O)N[C@@H](CCCCN)C(=O)N[C@@H](CC(N)=O)C(=O)N[C@@H](Cc1ccc(O)cc1)C(=O)N[C@@H](CCCCN)C(=O)N[C@H]1CCCCNC(=O)CCNC(=O)CC[C@@H](C(=O)N[C@H](C(=O)O)C(C)C)NC(=O)[C@H]([C@@H](C)O)NC1=O)C(N)=O [Sezto-CN] (I: H-CKNYKKTEV-OH / II: H-[Dmt][dR]FKC-NH2; disulfide I:1-II:5; linker I:6-I:8 via X1),~43.2
